Test results published in paper PMC7821958, “Synthesis, in vitro enzyme activity and molecular docking studies of new benzylamine-sulfonamide derivatives as selective MAO-B inhibitors” (Journal of Enzyme Inhibition and Medicinal Chemistry, 2020).
“Also recorded” adds a separate entry of the source.

Experiments:
MAO-B = system: MAO-B; parameters: method as in PMID 27028260; conditions: read-out: IC50 against MAO-B; cited from earlier work
hMAO-A = target: T1, hMAO-A (Homo sapiens, UniProt P21397); assay: MAO-A inhibition assay, fluorometric (Amplex Red / horseradish peroxidase-coupled); type: biochemical; conditions: read-out: MAO-A % Inhibition; for inhibition at 1000 µM: 10^−3 M; for inhibition at 100 µM: 10^−4 M
T1 construct: purchased Sigma-Aldrich (Steinheim, Germany)
T1 sequence (P21397 1-527): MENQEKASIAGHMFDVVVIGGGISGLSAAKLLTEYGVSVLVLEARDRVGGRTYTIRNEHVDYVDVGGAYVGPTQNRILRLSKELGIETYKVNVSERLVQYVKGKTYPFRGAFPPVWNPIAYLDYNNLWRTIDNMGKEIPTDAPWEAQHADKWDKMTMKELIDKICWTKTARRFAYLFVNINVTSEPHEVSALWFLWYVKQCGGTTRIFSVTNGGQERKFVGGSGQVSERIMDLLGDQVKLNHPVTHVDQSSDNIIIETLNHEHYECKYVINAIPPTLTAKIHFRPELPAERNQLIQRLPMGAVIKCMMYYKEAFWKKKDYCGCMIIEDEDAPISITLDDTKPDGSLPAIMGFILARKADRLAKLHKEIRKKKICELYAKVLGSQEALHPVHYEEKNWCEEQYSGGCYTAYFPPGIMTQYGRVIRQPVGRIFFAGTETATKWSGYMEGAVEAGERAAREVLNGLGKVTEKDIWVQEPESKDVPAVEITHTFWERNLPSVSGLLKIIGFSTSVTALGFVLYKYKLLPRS
Method: A Biotek Precision XS robotic system (USA) was used for all pipetting operations. Measurements were performed with the use of BioTek-Synergy H1 microplate reader (USA) based upon the fluorescence generated (excitation, 535 nm, emission, 587 nm) over a 30 min period, in which the fluorescence increased linearly.
Enzymatic assay was performed according to recent method pronounced by our research group[17]^,[20–22]. Control, blank and all concentrations of obtained compounds were tested in quadruplicate and inhibition percent was calculated with following equation: % Inhibition=(FCt2 − FCt1) − (FIt2 − FIt1)/FCt2 − FCt1 × 100
FCt2: Fluorescence of a control well measured at t2 time, FCt1: Fluorescence of a control well measured at […]: Fluorescence of an inhibitor well measured at t2 time, FIt1: Fluorescence of an inhibitor well measured at t1 time,
The IC50 values were calculated using a dose-response curve achieved by plotting the percentage inhibition versus the log concentration using GraphPad ‘PRISM’ software (version 5.0).
All the obtained benzylamine-sulphonamide derivatives 4a–4u were investigated for their inhibitory activity against MAO isoforms using a previously described in vitro fluorometric method, which is based on the detection of H2O2 in a horseradish peroxidase-coupled reaction using 10-acetyl-3,7-dihydroxyphenoxazine (Amplex Red reagent)[17]^,[20–22].
The assay was carried out in two steps. […].

hMAO-B [1] = target: T2, hMAO-B (Homo sapiens, UniProt P27338); assay: MAO-B inhibition assay, fluorometric (Amplex Red / horseradish peroxidase-coupled); type: biochemical; conditions: for inhibition at 1000 µM: 10^−3 M; for inhibition at 100 µM: 10^−4 M; for inhibition at 10 µM: 10^−5 M; for inhibition at 1 µM: 10^−6 M; for inhibition at 0.1 µM: 10^−7 M; for inhibition at 0.01 µM: 10^−8 M; for inhibition at 0.001 µM: 10^−9 M; for IC50: Table 2, mean ± SD, read-out: IC50 against MAO-B;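 for all read-outs here: fluorescence read at Ex 535 nm and Em 587 nm over 30 min, linear phase, inhibition relative to uninhibited control wells, IC50 from log concentration–response curves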
T2 construct: purchased Sigma-Aldrich (Steinheim, Germany)
T2 sequence (P27338 1-520): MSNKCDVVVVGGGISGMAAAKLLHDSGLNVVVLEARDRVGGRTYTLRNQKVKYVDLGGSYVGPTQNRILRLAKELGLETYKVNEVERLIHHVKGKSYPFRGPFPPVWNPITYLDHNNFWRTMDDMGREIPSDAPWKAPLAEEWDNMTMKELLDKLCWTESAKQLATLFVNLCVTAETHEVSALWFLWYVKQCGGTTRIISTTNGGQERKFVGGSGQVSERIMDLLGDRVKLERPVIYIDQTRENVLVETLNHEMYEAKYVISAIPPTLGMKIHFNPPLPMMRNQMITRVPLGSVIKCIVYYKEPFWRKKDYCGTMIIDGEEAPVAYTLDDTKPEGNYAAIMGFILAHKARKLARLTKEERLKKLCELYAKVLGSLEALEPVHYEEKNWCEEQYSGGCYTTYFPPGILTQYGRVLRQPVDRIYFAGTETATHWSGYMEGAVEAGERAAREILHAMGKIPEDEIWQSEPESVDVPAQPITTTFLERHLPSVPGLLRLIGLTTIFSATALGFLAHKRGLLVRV
Source text: FCt2: Fluorescence of a control well measured at t2 time, FCt1: Fluorescence of a control well measured at t2 time, FIt2: Fluorescence of an inhibitor well measured at t2 time, FIt1: Fluorescence of an inhibitor well measured at t1 time,

hMAO-B [2] = target: T2, hMAO-B; assay: Enzyme kinetic studies (Lineweaver-Burk plots, secondary plot); type: biochemical; conditions: for type of inhibition: Lineweaver-Burk plot; for Ki: substrate tyramine, secondary plot, read-out: Ki, steady-state inhibition constant
Method: The same materials were used in the MAO inhibition assay. […] All processes were evaluated in quadruplicate. The results were analysed as Lineweaver–Burk plots by means of Microsoft Office Excel 2013. The […] of the Lineweaver–Burk plots were replotted versus the inhibitor concentration, and the Ki values were determined from the x-axis intercept as −Ki.
Enzyme kinetics studies were performed to determine the mechanism of hMAO-B inhibition by using a procedure similar to that of the MAO inhibition assay. […] In order to estimate the type of inhibition of these compounds, linear Lineweaver-Burk graphs were used. Substrate velocity curves in the absence and presence of compounds 4i and 4t were recorded. […] In each case, the initial velocity measurements were obtained at different substrate (tyramine) concentrations ranging from 20 μM to 0.625 μM.
The type of inhibition can be determined as either reversible or irreversible by using the Lineweaver-Burk plots. The reversible inhibition type can be classified as mixed-type, uncompetitive, competitive, or non-competitive[17]^,[20–22]. […] Competitive inhibition is seen if the lines intersect on the y-axis, and the slopes and x-intercepts are different. On the contrary, non-competitive inhibition has the opposite result: the plotted lines have the same x-intercept but there are diverse slopes and y-intercepts.

Cytotoxicity MTT assay = type: cell-based, mouse; conditions: mouse, NIH/3T3 mouse embryonic fibroblast cells, read-out: IC50 NIH/3T3 cell line
Method: (§1) The NIH/3T3 mouse embryonic fibroblast cell line (ATCC®CRL-1658 ™, London, UK) was used for cytotoxicity assays. The incubation period of NIH/3T3 cells was based on the supplier's recommendation. NIH/3T3 cells were seeded at 1 × 10^4 cells into each well of 96-well plates. MTT assay was carried out in accordance with the standards previously described manner[23]^,[24]. The compounds were tested between 1 and 0.000316 mM concentrations.

[3] = system: NIH/3T3 mouse embryonic fibroblast cell line; assay: Cytotoxicity MTT assay; type: cell-based; conditions: NIH3T3 cells
Method: as §1

| Compound | IC50 (MAO-B) | inhibition at 1000 µM (hMAO-A) | inhibition at 100 µM (hMAO-A) | inhibition at 1000 µM (hMAO-B [1]) | inhibition at 100 µM (hMAO-B [1]) | inhibition at 10 µM (hMAO-B [1]) | inhibition at 1 µM (hMAO-B [1]) | inhibition at 0.1 µM (hMAO-B [1]) | inhibition at 0.01 µM (hMAO-B [1]) | inhibition at 0.001 µM (hMAO-B [1]) | IC50 (hMAO-B [1]) | type of inhibition (hMAO-B [2]) | Ki (hMAO-B [2]) | IC50 (Cytotoxicity MTT assay) | cytotoxicity (in words) [3] | melting point |
| --- | --- | --- | --- | --- | --- | --- | --- | --- | --- | --- | --- | --- | --- | --- | --- | --- |
| O=C(CSc1nc2cc(Cl)ccc2s1)N(Cc1cccc([N+](=O)[O-])c1)c1ccc(F)cc1 [BB-4h, 2-((5-chlorobenzothiazol-2-yl)thio)-N-(4-fluorophenyl)-N-(3-nitrobenzyl)acetamide] | 2.95 ± 0.09 µM | – | – | – | – | – | – | – | – | – | – | – | – | – | – | – |
| NS(=O)(=O)c1ccc(N(Cc2ccccc2)C(=O)CSc2nc3cc(Cl)ccc3s2)cc1 [Compound 4i, N-Benzyl-2-((5-chlorobenzothiazol-2-yl)thio)-N-(4-sulfamoylphenyl)acetamide] | – | 56.3 ± 0.996% | 40.5 ± 0.782% | 94.9 ± 1.41% | 91.8 ± 1.26% | 78.6 ± 1.11% | 72.5 ± 1.11% | 65.2 ± 0.985% | 46.5 ± 0.892% | 24.5 ± 0.627% | 0.041 ± 0.001 µM | reversible and non-competitive | 0.036 µM | > 1000 µM | non-toxic; also recorded: non-cytotoxic at their effective concentrations | 114 to 116 °C |
| Cc1ccc(CN(C(=O)CSc2nc3cc(Cl)ccc3s2)c2ccc(S(N)(=O)=O)cc2)cc1 [Compound 4t, 2-((5-Chlorobenzothiazol-2-yl)thio)-N-(4-methylbenzyl)-N-(4-sulfamoylphenyl)acetamide] | – | 52.6 ± 0.987% | 38.3 ± 0.503% | 92.6 ± 1.13% | 88.6 ± 1.2% | 80.5 ± 1.16% | 74.7 ± 1.01% | 60.8 ± 1.16% | 36.1 ± 0.862% | 21 ± 0.594% | 0.065 ± 0.002 µM | reversible and non-competitive | 0.055 µM | > 1000 µM | non-toxic; also recorded: non-cytotoxic at their effective concentrations | 109 to 111 °C |
